From patent US9796711B2, “Substituted pyrazolo[3,4-b]pyridin-6-carboxylic acids and method of use” (AbbVie S.àr.l., priority 2015, dated 2017) come the findings set out here.

In test [1] the target is T1, ΔF508-CFTR (Homo sapiens, UniProt P13569, DEL508-508).
T1 construct: host or cells: CFBE41o-, doxycycline-inducible
Nature of the test: CFTR cell surface levels using HRP-tagged ΔF508-CFTR expressing CFBE cells, in the presence of a co-corrector. In kind it is cell-based. To be noted: HRP-tagged ΔF508-CFTR expressing CFBE cells, in the presence of 3 μM co-corrector; for EC50: read-out: EC50. The essentials: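 Cells were seeded with 0.5 μg/mL doxycycline and held 68 h at 37 °C. Test compounds plus 3 μM co-corrector (final 0.1% DMSO) were then added for 20 h at 33 °C. Washed cells received HRP substrate, and luminescence was normalized between DMSO and 3 μM co-corrector controls.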

Test [2] deals with T1, ΔF508-CFTR. In words: CFTR cell surface levels using HRP-tagged ΔF508-CFTR expressing CFBE cells, intrinsic corrector capacity. It is filed as cell-based. To be noted: for EC50: read-out: EC50. The procedure, abridged:
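Here the cells express ΔF508-CFTR with horseradish peroxidase inserted in extracellular loop 4, so only rescued channel at the surface gives luminescent signal. Compounds act on their own, 20 h at the reduced temperature of 33 °C; values are percent activity relative to DMSO and a 3 μM corrector.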

Setting [3] is: HRP-tagged ΔF508-CFTR CFBE41o- cells, compounds alone (intrinsic corrector capacity), 20 hours at 33° C., positive control 3 μM corrector.
[4] abbreviates: HRP-tagged ΔF508-CFTR CFBE41o- cells, compounds alone (intrinsic corrector capacity), 20 hours at 33° C.
The mark [5] stands for this setting: HRP-tagged ΔF508-CFTR expressing CFBE cells, intrinsic corrector capacity (no co-corrector), 33° C., 20 hours.

T1 sequence (P13569 with tags, fused parts or gaps DEL508-508): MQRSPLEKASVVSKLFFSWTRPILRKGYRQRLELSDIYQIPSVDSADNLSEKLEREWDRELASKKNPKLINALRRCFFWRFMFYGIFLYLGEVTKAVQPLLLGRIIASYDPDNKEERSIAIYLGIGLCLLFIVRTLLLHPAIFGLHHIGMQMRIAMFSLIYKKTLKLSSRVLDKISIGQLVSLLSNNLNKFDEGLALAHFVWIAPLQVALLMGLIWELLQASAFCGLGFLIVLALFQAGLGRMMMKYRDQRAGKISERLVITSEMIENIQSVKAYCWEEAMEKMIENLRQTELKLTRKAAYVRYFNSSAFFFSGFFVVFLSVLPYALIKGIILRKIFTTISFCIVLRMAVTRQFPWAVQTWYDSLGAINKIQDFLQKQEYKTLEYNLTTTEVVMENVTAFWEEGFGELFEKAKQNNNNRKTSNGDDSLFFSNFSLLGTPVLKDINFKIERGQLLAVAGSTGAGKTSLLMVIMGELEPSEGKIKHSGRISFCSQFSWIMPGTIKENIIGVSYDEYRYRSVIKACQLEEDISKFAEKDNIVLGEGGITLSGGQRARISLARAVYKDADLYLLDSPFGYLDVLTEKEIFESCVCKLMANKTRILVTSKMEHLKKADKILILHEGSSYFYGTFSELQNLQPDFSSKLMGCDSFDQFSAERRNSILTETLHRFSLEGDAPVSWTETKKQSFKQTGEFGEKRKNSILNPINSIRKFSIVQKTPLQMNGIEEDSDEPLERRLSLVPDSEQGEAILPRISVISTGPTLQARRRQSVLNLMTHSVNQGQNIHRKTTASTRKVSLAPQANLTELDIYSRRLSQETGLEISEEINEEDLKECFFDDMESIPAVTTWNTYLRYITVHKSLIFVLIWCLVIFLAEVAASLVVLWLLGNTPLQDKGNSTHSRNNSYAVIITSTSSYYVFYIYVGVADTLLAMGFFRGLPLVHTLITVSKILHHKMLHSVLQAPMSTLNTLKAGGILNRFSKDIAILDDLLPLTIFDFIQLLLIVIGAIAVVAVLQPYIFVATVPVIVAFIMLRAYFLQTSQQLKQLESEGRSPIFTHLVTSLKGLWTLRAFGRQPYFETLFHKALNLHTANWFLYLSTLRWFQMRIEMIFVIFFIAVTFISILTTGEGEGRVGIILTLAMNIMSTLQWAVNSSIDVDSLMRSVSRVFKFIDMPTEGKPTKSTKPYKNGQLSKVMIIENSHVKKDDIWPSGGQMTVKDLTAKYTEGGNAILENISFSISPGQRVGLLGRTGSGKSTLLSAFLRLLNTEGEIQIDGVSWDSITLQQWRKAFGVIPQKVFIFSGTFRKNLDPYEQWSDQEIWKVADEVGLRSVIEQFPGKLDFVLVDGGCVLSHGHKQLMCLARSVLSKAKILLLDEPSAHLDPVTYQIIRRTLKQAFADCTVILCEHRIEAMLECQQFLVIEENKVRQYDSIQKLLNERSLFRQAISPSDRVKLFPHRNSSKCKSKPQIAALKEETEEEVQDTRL

For the compound `CC(C)c1nn(C2CCC(F)(F)CC2)c2nc(C(=O)O)cc(-c3ccc(N4CCOCC4)cc3)c12` [compound 159, 1-(4,4-difluorocyclohexyl)-4-[4-(morpholin-4-yl)phenyl]-3-(propan-2-yl)-1H-pyrazolo[3,4-b]pyridine-6-carboxylic acid], the “% Activation” value came out at 415.33% on ΔF508-CFTR [1] and 150.16% on ΔF508-CFTR [2] (setting [3]). For the same compound, the EC50 was determined as 755 nM on ΔF508-CFTR [1] and 737 nM on ΔF508-CFTR [2] (setting [4]).
`CO[C@H]1CC[C@@H](Oc2cc(C(=O)O)nc3c2c(C2CCC2)nn3-c2ccccc2)CC1` [compound 428, 3-cyclobutyl-4-[(cis-4-methoxycyclohexyl)oxy]-1-phenyl-1H-pyrazolo[3,4-b]pyridine-6-carboxylic acid]: the “% Activation” value at ΔF508-CFTR [1] was found to be 296%; on ΔF508-CFTR [2] (setting [5]) it was 128.05%. Besides, the EC50 on ΔF508-CFTR [1] was 380 nM; at ΔF508-CFTR [2] (setting [5]), 978 nM.
For the compound `CCOCC1(F)CCN(c2cc(C(=O)O)nc3c2c(C2CCC2)nn3-c2ccccc2)C1` (centres unmarked) [compound 510, 3-cyclobutyl-4-[3-(ethoxymethyl)-3-fluoropyrrolidin-1-yl]-1-phenyl-1H-pyrazolo[3,4-b]pyridine-6-carboxylic acid], on ΔF508-CFTR [1], the “% Activation” value was determined as 313.2% and the EC50 came out at 397 nM. In addition, on ΔF508-CFTR [2] (setting [5]), the “% Activation” value turned out to be 99.8% and the EC50 came to 1110 nM.
With `CC(C)c1nn(C2CCCCC2)c2nc(C(=O)O)cc(-c3ccc(N(C)C)nc3)c12` [compound 93, 1-cyclohexyl-4-[6-(dimethylamino)pyridin-3-yl]-3-(propan-2-yl)-1H-pyrazolo[3,4-b]pyridine-6-carboxylic acid], the “% Activation” value on ΔF508-CFTR [1] came out at 379.57%; on ΔF508-CFTR [2] (setting [3]), 175.6%. For the same compound, the concentration for a half-maximal effect (EC50) on ΔF508-CFTR [1] was determined as 491 nM; at ΔF508-CFTR [2] (setting [4]), 680 nM.
Consider `CN(C)CCCCOc1cc(C(=O)O)nc2c1c(C1CCC1)nn2-c1ccccc1` [compound 611, 3-cyclobutyl-4-[4-(dimethylamino)butoxy]-1-phenyl-1H-pyrazolo[3,4-b]pyridine-6-carboxylic acid], for which, on ΔF508-CFTR [1], the “% Activation” value stood at 278.1% and the EC50 turned out to be 2930 nM. At ΔF508-CFTR [2] (setting [5]), the “% Activation” value is reported as 104.6% and the EC50 was 3330 nM.
Consider `Cc1nn(-c2cccc(C(F)(F)F)c2)c2nc(C(=O)O)cc(-c3ccc(N4CCOCC4)cc3)c12` [compound 22, 3-methyl-4-[4-(morpholin-4-yl)phenyl]-1-[3-(trifluoromethyl)phenyl]-1H-pyrazolo[3,4-b]pyridine-6-carboxylic acid], for which the “% Activation” value on ΔF508-CFTR [1] is recorded as 310.95%; on ΔF508-CFTR [2] (setting [3]) it was 131.28%. For the same compound, the EC50 at ΔF508-CFTR [1] came to 995 nM; at ΔF508-CFTR [2] (setting [4]), 1010 nM.
For `Cc1nn(-c2ccccc2)c2nc(C(=O)O)cc(OCC3(CF)CC3)c12` [compound 387, 4-{[1-(fluoromethyl)cyclopropyl]methoxy}-3-methyl-1-phenyl-1H-pyrazolo[3,4-b]pyridine-6-carboxylic acid] the same measures were 224.5%, 65.365%, 1670 nM and 1670 nM.
For `NC(=O)c1nn(-c2ccccc2)c2nc(C(=O)O)cc(-c3ccc(N4CCOCC4)cc3)c12` [compound 64, 3-carbamoyl-4-[4-(morpholin-4-yl)phenyl]-1-phenyl-1H-pyrazolo[3,4-b]pyridine-6-carboxylic acid], the “% Activation” value is on record as 113.3% at ΔF508-CFTR [1] and 3.754% on ΔF508-CFTR [2] (setting [3]). For the same compound, the EC50 on ΔF508-CFTR [1] and at ΔF508-CFTR [2] (setting [4]) was greater than 10000 nM each time.
For the compound `O=C(O)c1cc(N2CCC3(CCCO3)C2)c2c(C3CCC3)nn(-c3ccccc3)c2n1` (centres unmarked) [compound 518, 3-cyclobutyl-4-(1-oxa-7-azaspiro[4.4]nonan-7-yl)-1-phenyl-1H-pyrazolo[3,4-b]pyridine-6-carboxylic acid], on ΔF508-CFTR [1], the “% Activation” value came to 237% and the EC50 is 531 nM. Besides, at ΔF508-CFTR [2] (setting [5]), the “% Activation” value is given as 62.95% and the EC50 amounted to 371 nM.
In the case of `CC(C)c1nn(-c2cccc(N3CCCC3)c2)c2nc(C(=O)O)cc(-c3ccc(N4CCOCC4)cc3)c12` [compound 157, 4-[4-(morpholin-4-yl)phenyl]-3-(propan-2-yl)-1-[3-(pyrrolidin-1-yl)phenyl]-1H-pyrazolo[3,4-b]pyridine-6-carboxylic acid], the results for the “% Activation” value on ΔF508-CFTR [1] and at ΔF508-CFTR [2] (setting [3]) were 621% and 388.2%, respectively. Also, the EC50 at ΔF508-CFTR [1] was 485 nM; at ΔF508-CFTR [2] (setting [4]) it was 459 nM.
As to `CCOCCN1CCN(c2cc(C(=O)O)nc3c2c(C2CCC2)nn3-c2ccccc2)CC1` [compound 566, 3-cyclobutyl-4-[4-(2-ethoxyethyl)piperazin-1-yl]-1-phenyl-1H-pyrazolo[3,4-b]pyridine-6-carboxylic acid], on ΔF508-CFTR [1], the “% Activation” value amounted to 365.3% and the EC50 worked out at 407 nM. Besides, on ΔF508-CFTR [2] (setting [5]), the “% Activation” value is listed as 150.5% and the EC50 was determined as 388 nM.
In the case of `CC(C)c1nn(C2CCCCC2)c2nc(C(=O)O)cc(-c3ccc4c(c3)CNC4=O)c12` [compound 364, 1-cyclohexyl-4-(1-oxo-2,3-dihydro-1H-isoindol-5-yl)-3-(propan-2-yl)-1H-pyrazolo[3,4-b]pyridine-6-carboxylic acid], the “% Activation” value at ΔF508-CFTR [1] was found to be 282.3%; on ΔF508-CFTR [2] (setting [3]), 118.28%. In addition, the concentration giving a half-maximal response (EC50) at ΔF508-CFTR [1] amounted to 1640 nM; on ΔF508-CFTR [2] (setting [4]), 2280 nM.
Consider `CN(C)CCOc1cc(C(=O)O)nc2c1c(C1CCC1)nn2-c1ccccc1` [compound 637, 3-cyclobutyl-4-[2-(dimethylamino)ethoxy]-1-phenyl-1H-pyrazolo[3,4-b]pyridine-6-carboxylic acid], for which, on ΔF508-CFTR [1], the “% Activation” value is recorded as 174.45% and the EC50 came to 3010 nM. On ΔF508-CFTR [2] (setting [5]), the “% Activation” value is recorded as 49.14% and the EC50 came out at 3330 nM.
`CC(C)c1nn(-c2cccc(N3CCOCC3)c2)c2nc(C(=O)O)cc(-c3cnc(N(C)C4CCOCC4)nc3)c12` [compound 231, 4-{2-[methyl(oxan-4-yl)amino]pyrimidin-5-yl}-1-[3-(morpholin-4-yl)phenyl]-3-(propan-2-yl)-1H-pyrazolo[3,4-b]pyridine-6-carboxylic acid]: the “% Activation” value is recorded as 625.45% at ΔF508-CFTR [1] and 419% on ΔF508-CFTR [2] (setting [3]). The EC50 turned out to be 570 nM on ΔF508-CFTR [1] and 733 nM at ΔF508-CFTR [2] (setting [4]).
Turning to `CC(C)c1nn(-c2ccnc(Cl)c2)c2nc(C(=O)O)cc(-c3ccc(N4CCOCC4)cc3)c12` [compound 41, 1-(2-chloropyridin-4-yl)-4-[4-(morpholin-4-yl)phenyl]-3-(propan-2-yl)-1H-pyrazolo[3,4-b]pyridine-6-carboxylic acid], the “% Activation” value stood at 301.2% at ΔF508-CFTR [1] and 110.52% on ΔF508-CFTR [2] (setting [3]). In addition, the EC50 at ΔF508-CFTR [1] was found to be 527 nM; on ΔF508-CFTR [2] (setting [4]), 957 nM.
With `CC(C)c1nn(-c2ccc(F)cc2)c2nc(C(=O)O)cc(N3CCN(C(C)(C)C)CC3)c12` [compound 788, 4-(4-tert-butylpiperazin-1-yl)-1-(4-fluorophenyl)-3-(propan-2-yl)-1H-pyrazolo[3,4-b]pyridine-6-carboxylic acid], at ΔF508-CFTR [1], the “% Activation” value stood at 329.4% and the EC50 turned out to be 1670 nM. At ΔF508-CFTR [2] (setting [5]), the “% Activation” value turned out to be 115.7% and the EC50 came out at 1670 nM.
Consider `O=C(O)c1cc(OCCN2CCC3(CC2)OCCO3)c2c(C3CCC3)nn(-c3ccccc3)c2n1` [compound 623, 3-cyclobutyl-4-[2-(1,4-dioxa-8-azaspiro[4.5]decan-8-yl)ethoxy]-1-phenyl-1H-pyrazolo[3,4-b]pyridine-6-carboxylic acid], for which, on ΔF508-CFTR [1], the “% Activation” value worked out at 308.3% and the EC50 was 501 nM. Besides, on ΔF508-CFTR [2] (setting [5]), the “% Activation” value was determined as 106.8% and the EC50 came to 1160 nM.
For `CC(C)(O)c1nn(-c2ccccc2)c2nc(C(=O)O)cc(-c3ccc(N4CCOCC4)cc3)c12` [compound 63, 3-(2-hydroxypropan-2-yl)-4-[4-(morpholin-4-yl)phenyl]-1-phenyl-1H-pyrazolo[3,4-b]pyridine-6-carboxylic acid], the “% Activation” value at ΔF508-CFTR [1] is given as 294.35%; on ΔF508-CFTR [2] (setting [3]), 108.18%. Moreover, the EC50 on ΔF508-CFTR [1] and at ΔF508-CFTR [2] (setting [4]) was 3340 nM throughout.
With `CC(=O)NC1CCN(c2cc(C(=O)O)nc3c2c(C)nn3-c2ccccc2)CC1` [compound 292, 4-(4-acetamidopiperidin-1-yl)-3-methyl-1-phenyl-1H-pyrazolo[3,4-b]pyridine-6-carboxylic acid], the “% Activation” value is given as 141.1% at ΔF508-CFTR [1] and 15.095% on ΔF508-CFTR [2] (setting [3]). Further, the results for the EC50 on ΔF508-CFTR [1] and at ΔF508-CFTR [2] (setting [4]) were 4170 nM and 7500 nM, respectively.
In the case of `CC1(O)CN(c2cc(C(=O)O)nc3c2c(C2CCC2)nn3-c2ccccc2)C1` [compound 536, 3-cyclobutyl-4-(3-hydroxy-3-methylazetidin-1-yl)-1-phenyl-1H-pyrazolo[3,4-b]pyridine-6-carboxylic acid], the figures for the “% Activation” value at ΔF508-CFTR [1] and on ΔF508-CFTR [2] (setting [5]) were 209.35% and 49.72%, respectively. Besides, the EC50 on ΔF508-CFTR [1] was 2470 nM; at ΔF508-CFTR [2] (setting [5]), 3330 nM.

As usually defined, the EC50 is the concentration needed to bring the measured effect to its halfway point.
